Activity calls are given as the source filed them.
What was measured:
Kallikrein-7 = Kallikrein-7 (Homo sapiens, UniProt P49862); test: Fluorescence Intensity-based biochemical primary high throughput dose response assay to identify activators of kallikrein-7 (K7) zymogen.
[1] = HepG2 cell cytotoxicity, dose response, cytotoxicity control, cherry-picked samples (AID 1159577); format: functional, cell-based
[2] = P. falciparum 3D7-ScDHODH growth inhibitors, dose response, SYBR Green, dry powder samples (AID 1159570); format: functional, cell-based;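 note: parasite growth measured after 72 hours of compound exposure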
[3] = P. falciparum Dd2 growth inhibitors, dose response, SYBR Green, dry powder samples (AID 1159566); format: functional, cell-based;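 note: potency for growth inhibition with lower SYBR green DNA signal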
[4] = HepG2 cell cytotoxicity, dose response, cytotoxicity control, plate reader, dry powder samples (AID 1159569); format: functional, cell-based;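 note: inhibitor potency with signal falling toward the positive control level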
[5] = P. falciparum Dd2 growth inhibitors, dose response, SYBR Green, cherry-picked samples (AID 1159567); format: functional, cell-based
[6] = P. falciparum ATP4 D1247Y mutant growth inhibitors, dose response, NITD609-resistant line, SYBR Green, dry powder (AID 1159571); format: functional, cell-based;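 note: parasites synchronized at ring stage by sorbitol before testing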
[7] = non-specific cell cytotoxicity, dose response, cytotoxicity control for PAX8 inhibitor project, plate reader, dry powder samples (AID 743021); format: functional, cell-based
Paired box protein Pax-8 = Paired box protein Pax-8 (Homo sapiens, UniProt Q06710); test: inhibitors of PAX8-driven TPO luciferase reporter, dose response, RMG-I cells, cherry-pick (AID 687027); format: functional, cell-based;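 note: luciferase reporter driven by Pax8 target thyroperoxidase promoter measured by SteadyGlo luminescence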
[8] = HEK293 cell cytotoxicity, dose response, cytotoxicity control, plate reader, cherry-picked samples (AID 743446); format: functional, cell-based
[9] = LGR2 antagonists, dose response, cell-based, HEK293, CRE-luciferase reporter, cherry pick, set 2 (AID 743343); format: functional;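 note: transfected cells were stimulated with diluted bursicon conditioned medium after compound addition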
[10] = MC4R antagonists, dose response, counter-screen for LGR2 antagonist project, cell-based, plate reader, cherry pick (AID 743444); format: functional;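 note: transfected HEK 293 cells stimulated with alpha-MSH peptide; potency of inhibitors of the alpha-MSH evoked signal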
[11] = THP-1 cell cytotoxicity, dose response, cytotoxicity control for Vif-APOBEC3G degradation inhibitor project, THP-1 cells (AID 1117359); format: functional; conditions: Human immunodeficiency virus 1, THP-1
[12] = cytotoxicity in OVCAR8 ovarian cancer cells, dose response, PAX8 project, cell-based, plate reader, dry powder samples (AID 743197); format: functional; conditions: OVCAR-8
[13] = A2780 ovarian cancer cell cytotoxicity, dose response, cytotoxicity control, plate reader, dry powder samples (AID 743046); format: functional, cell-based

Sequence of Kallikrein-7 (P49862 whole entry): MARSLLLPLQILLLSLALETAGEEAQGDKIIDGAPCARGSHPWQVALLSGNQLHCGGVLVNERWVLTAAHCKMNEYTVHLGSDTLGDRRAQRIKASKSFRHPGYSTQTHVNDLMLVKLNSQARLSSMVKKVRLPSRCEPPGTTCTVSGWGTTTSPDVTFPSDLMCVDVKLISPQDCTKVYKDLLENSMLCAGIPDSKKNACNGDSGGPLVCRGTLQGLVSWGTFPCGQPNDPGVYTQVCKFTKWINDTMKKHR
Sequence of Paired box protein Pax-8 (Q06710 whole entry): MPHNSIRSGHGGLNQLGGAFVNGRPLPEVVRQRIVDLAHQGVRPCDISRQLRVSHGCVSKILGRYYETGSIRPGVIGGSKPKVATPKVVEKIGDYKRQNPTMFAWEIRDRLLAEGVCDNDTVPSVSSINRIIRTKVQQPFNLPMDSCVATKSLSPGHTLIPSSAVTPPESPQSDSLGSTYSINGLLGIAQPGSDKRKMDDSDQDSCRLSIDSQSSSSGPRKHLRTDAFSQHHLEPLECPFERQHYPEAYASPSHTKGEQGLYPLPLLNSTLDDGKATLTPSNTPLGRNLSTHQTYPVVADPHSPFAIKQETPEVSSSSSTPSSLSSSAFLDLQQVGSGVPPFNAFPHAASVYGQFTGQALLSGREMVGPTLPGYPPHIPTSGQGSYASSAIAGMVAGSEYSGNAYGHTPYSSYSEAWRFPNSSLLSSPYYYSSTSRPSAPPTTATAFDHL

## CC(=O)Nc1ccc(S(=O)(=O)[N-]c2nc3ccccc3nc2-[n+]2ccc(NC(=O)c3ccccc3)cc2)cc1
Kallikrein-7
  EC50: > 69.5 µM (inactive)

## C[C@@H]1CN([C@@H](C)CO)C(=O)Cc2cc(NC(=O)Nc3ccc(C(F)(F)F)cc3)ccc2O[C@H]1CN(C)Cc1ccc(-c2ccccc2)cc1
[1]
  AC50: 21.4 µM (active)
[2]
  AC50: 1.09 µM (active)
[3]
  AC50: 1.11 µM (active)
[4]
  AC50: 19.3 µM (active)
[5]
  AC50: 1.8 µM (active)
[6]
  AC50: 1.83 µM (active)

## CCOCCCn1/c(=N\C(=O)c2ccco2)c(C(=O)OCC)cc2c(=O)n3cccc(C)c3nc21
Kallikrein-7
  EC50: 38.7 µM (inactive)

## Oc1nc2ccccc2n1C1CCN(C(c2cccs2)c2nnnn2-c2ccc3c(c2)OCCO3)CC1 (stereo not drawn)
[7]
  AC50: 54.2 µM (active)
Paired box protein Pax-8
  AC50: 1.78 µM (active)

## CCOC(=O)N1CCN(C(=O)c2ccc3nc4ccsc4c(=O)n3c2)CC1
Kallikrein-7
  EC50: 10.6 µM (inactive)

## Cc1ccc(-c2nc(-c3ccccn3)no2)cc1[N+](=O)[O-]
[8]
  AC50: > 52 µM (inactive)
[9]
  AC50: 4.31 µM (active)
[10]
  AC50: 14.9 µM (active)

## C[C@H](CO)N1C[C@H](C)[C@@H](CN(C)C(=O)c2ccccc2F)Oc2ncc(C#Cc3cccc(F)c3)cc2C1=O
[2]
  AC50: 3.17 µM (active)
[3]
  AC50: 1.63 µM (active)
[4]
  AC50: 39.9 µM (active)
[5]
  AC50: 1.97 µM (active)
[6]
  AC50: 2.1 µM (active)

## CCC(C(=O)Nc1cc(C(=O)O)ccc1C)c1ccccc1 (stereo not drawn)
[11]
  CC50: > 40 µM (active)

## CN1C(=O)c2cc(NC(=O)c3cccc(Cl)c3)ccc2OC[C@@H]2O[C@H](CC(=O)NC3CCCCC3)CC[C@@H]21
[12]
  AC50: 51.9 µM (active)
[13]
  AC50: 1.19 µM (active)
Paired box protein Pax-8
  AC50: 7.9 µM (active)
